{"source": "patent US20230159583A1", "about": "“COMPOUND FOR TREATING GOUT, PREPARATION METHOD THEREFOR, AND USE THEREOF” (Huazhong Pharmaceutical Co., Ltd., priority 2020, published 2023)", "assay_type_in_all_cases": "in vivo", "key": {"[1]": {"test_system": "rat paw swelling induced by monosodium urate (MSU)", "assay": "rat paw swelling model induced by monosodium urate (MSU)", "source_text": "Gout is a disease unique to human, and gouty arthritis is an inflammatory reaction caused by the deposition of monosodium urate (MSU) in local joint tissues. Since purine metabolism pathways in some mammals such as mice and rabbits are different from those in humans, it is impossible to construct a gouty arthritis model by the method of interfering with purine metabolism disorders, so the most direct method for causing gouty arthritis is to directly inject MSU into the joint cavity of the model animal. The model is only used for simulating local joint inflammation of gout, is suitable for observation of local arthritis symptoms, is a common method for screening anti-inflammatory effects of gout drugs at present, and has the advantages of stability, easy operation and the like. (Reference: Li Na, Hua Long, and Yuan Hui. Research progress of gout animal models [J]. Medical theory and practice, 2016(24).\nThe anti-gout effect of the compound prepared in the above Example was detected by using a rat paw swelling model induced by monosodium urate (MSU), and the control sample was methylprednisolone.\nExperimental method: MSU was used as an inflammatory agent, injected subcutaneously into the hind paws of rats to cause paw swelling, and then the volume of the paws was measured, and the swelling rates and swelling inhibition rates of the treatment group and the control group were compared. On the day of the experiment, the volume of right hind paw (ml) of each rat was measured firstly, and then after the onset of inflammation, the volume of right hind paw was measured so that the difference of volume of paw before and after inflammation was swelling degree, and the swelling inhibition rate of paw (swelling inhibition rate %=(C−T)/C*100%); C=swelling rate of the control group %, and T=swelling rate of the treatment group) was calculated. This method is one of the commonly used methods for screening anti-inflammatory effects of gout drugs, and the model is stable and easy to operate.\n(2) One week before the subcutaneous injection of MSU into the feet and soles of the rats, the rats were given different doses of the test drugs, and the drugs were given by gavage once a day, for seven consecutive days. The circumference of the right hind paw was marked and measured before the last administration, and the average value of the two measurements was taken as the standard. 1 h after the last administration, animals in other groups were given 50 μL of 2% MSU in addition to the blank control group, and the paw circumference was measured 1 h after the onset of inflammation. […]"}, "ICR mice": {"test_system": "ICR mice", "conditions": "p.o.", "experimental": "The experiment was designed according to the “Technical Guideline for Acute Toxicity Test of Chemical Drugs” issued by the State Food and Drug Administration in March 2005. The doses administered were 4 g/kg, 4.91 g/kg, 6.14 g/kg, 7.68 g/kg, 9.6 g/kg, 12 g/kg, and 15 g/kg (the dose could be adjusted according to the actual test results), 12 ICR mice per dose group. If the administration volume is greater than 0.5 ml, it is better to perform the drug administration in two or more times (Note: according to the national standard GB 15193.3-2014, if multiple drug administrations are required, the time interval should be 4 h to 6 h each time, and the patient should be fasted on the day before drug administration)."}, "[2]": {"test_system": "carrageenan-induced mouse paw swelling", "assay": "carrageenan-induced mouse paw swelling model", "experimental": "The anti-inflammatory effects of the compounds prepared in the above Examples were detected using a carrageenan-induced mouse paw swelling model, and the control sample was methylprednisolone:\nCarrageenan-induced mouse paw swelling model is a classical acute inflammation model commonly used for evaluating or screening anti-inflammatory effects of drugs. When carrageenan is injected into the paw of mice, a series of reactions similar to human acute inflammation such as local capillary dilatation, increased vascular permeability, exudation and edema can be caused, so the model can be widely used in the evaluation of new drugs.\nReference for experimental method: Yang Huan, Cheng Xiao, Wang Yuehua, Du Guanhua. Effects of esculin on the swelling of toes and inflammation induced by carrageenan in mice [J]. Chinese Journal of New Drugs, 2016(25):2322.\nOn the day of the experiment, the circumference of right hind paw (cm) of each mouse was measured firstly, and then, after the onset of inflammation, the circumference of right hind paw was measured so that the difference of the circumferences of the paws before and after inflammation was swelling degree, and the swelling inhibition rate of paw (swelling inhibition rate %=(C−T)/C*100%); C=swelling rate of the control group %, and T=swelling rate of the treatment group) was calculated.\n(2) Gavage administration was performed once a day for seven consecutive days. The circumference of the right hind paw was marked and measured before the last administration, and the average value of the two measurements was taken as the standard. 30 min after the last administration, 20 μL/mice of 0.5% carrageenan was injected into the right hind ankle of the mice to induce inflammation, and the circumference of paw was measured 180 min after the onset of inflammation. […]"}}, "note": "Read-outs that look alike come from different tables or passages of the source."}
{"compound": "CCCCC(=O)O[C@]1(/C(CO)=N/O)CC[C@H]2[C@@H]3C[C@H](C)C4=CC(=NO)C=C[C@]4(C)[C@H]3[C@@H](O)C[C@@]21C", "note": "[Example 17, (6S,8S,9S,10R,11S,13S,14S,17R,E)-11-hydroxy-17-((E)-2-hydroxy-1-(hydroxyimino)ethyl)-3-(hydroxyimino)-6,10,13-trimethyl-6,7,8,9,10,11,12,13,14,15,16,17-dodecahydro-3H-cyclopentane[α]phenanthrene-17-yl valerate]", "values": [{"measurement": "inhibition in vivo at 90 mg/kg", "setting": "[1]; Rattus norvegicus, po, 1 h, SD rats, 90 mg/kg by gavage once a day for seven days, 1 h after onset of inflammation, read-out: Swelling inhibition rate", "result": 96.4, "unit": "%"}, {"measurement": "inhibition in vivo at 0.36 mg/kg", "setting": "[1]; Rattus norvegicus, po, 1 h, rat, MSU-induced paw swelling, dosage 0.36 mg/kg, read-out: Swelling inhibition rate", "result": 10.3, "unit": "%"}, {"measurement": "inhibition in vivo at 1.8 mg/kg", "setting": "[1]; Rattus norvegicus, po, 1 h, rat, MSU-induced paw swelling, dosage 1.8 mg/kg, read-out: Swelling inhibition rate", "result": 56.1, "unit": "%"}, {"measurement": "inhibition in vivo at 9 mg/kg", "setting": "[1]; Rattus norvegicus, po, 1 h, rat, MSU-induced paw swelling, dosage 9 mg/kg, read-out: Swelling inhibition rate", "result": 78.2, "unit": "%"}, {"measurement": "inhibition in vivo at 90 mg/kg", "setting": "[1]; Rattus norvegicus, po, 1 h, rat, MSU-induced paw swelling, dosage 90 mg/kg, read-out: Swelling inhibition rate", "result": 97, "unit": "%"}, {"measurement": "change in vivo at 90 mg/kg", "setting": "[1]; Rattus norvegicus, po, SD rats, 90 mg/kg by gavage once a day for seven days, 1 h after onset of inflammation, read-out: Swelling degree", "result": 11.9, "unit": "%"}, {"measurement": "Swelling value", "setting": "[1]; SD rats, 90 mg/kg by gavage once a day for seven days, 1 h after onset of inflammation", "result": 0.14, "unit": "mL"}, {"measurement": "Mean volume of paw after administration", "setting": "[1]; SD rats, 90 mg/kg by gavage once a day for seven days, 1 h after onset of inflammation (50 μL 2% MSU)", "result": 1.32, "unit": "mL"}, {"measurement": "Mortality", "setting": "ICR mice; 4 g/kg", "result": "0/12"}, {"measurement": "Mortality", "setting": "ICR mice; 4.91 g/kg", "result": "0/12"}, {"measurement": "Mortality", "setting": "ICR mice; 6.14 g/kg", "result": "0/12"}, {"measurement": "Mortality", "setting": "ICR mice; 7.68 g/kg", "result": "0/12"}, {"measurement": "Mortality", "setting": "ICR mice; 9.6 g/kg", "result": "0/12"}, {"measurement": "Mortality", "setting": "ICR mice; 12 g/kg", "result": "0/12"}, {"measurement": "Mortality", "setting": "ICR mice; 15 g/kg", "result": "0/12"}, {"measurement": "Swelling value", "setting": "[2]; ICR mice, 130 mg/kg by gavage once a day for seven days, 180 min after onset of inflammation", "result": 0.01, "unit": "cm"}, {"measurement": "Circumference of the paw after administration", "setting": "[2]; ICR mice, 130 mg/kg by gavage once a day for seven days, 180 min after onset of inflammation (0.5% carrageenan)", "result": 1.43, "unit": "cm"}, {"measurement": "inhibition in vivo at 0.26 mg/kg", "setting": "[2]; Mus musculus, po, 3 h, mouse, carrageenan-induced paw swelling, dosage 0.26 mg/kg, read-out: Swelling inhibition rate", "result": 28.2, "unit": "%"}, {"measurement": "inhibition in vivo at 13 mg/kg", "setting": "[2]; Mus musculus, po, 3 h, mouse, carrageenan-induced paw swelling, dosage 13 mg/kg, read-out: Swelling inhibition rate", "result": 60.3, "unit": "%"}, {"measurement": "inhibition in vivo at 130 mg/kg", "setting": "[2]; Mus musculus, po, 3 h, mouse, carrageenan-induced paw swelling, dosage 130 mg/kg, read-out: Swelling inhibition rate", "result": 98.7, "unit": "%"}, {"measurement": "change in vivo at 130 mg/kg", "setting": "[2]; Mus musculus, po, 3 h, ICR mice, 130 mg/kg by gavage once a day for seven days, 180 min after onset of inflammation, read-out: Swelling degree", "result": 0.7, "unit": "%"}, {"measurement": "inhibition in vivo at 130 mg/kg", "setting": "[2]; Mus musculus, po, 3 h, ICR mice, 130 mg/kg by gavage once a day for seven days, 180 min after onset of inflammation, read-out: Swelling inhibition rate", "result": 96.4, "unit": "%"}]}
